Assay results as given in patent publication US20150250786A1, “PYRIMIDINE HYDROXY AMIDE COMPOUNDS AS PROTEIN DEACETYLASE INHIBITORS AND METHODS OF USE THEREOF” (THE TRUSTEES OF THE UNIVERSITY OF PENNSYLVANIA, priority 2012, published 2015).

Legend:
HDAC2 = HDAC2 (Homo sapiens, UniProt Q92769); assay: HDAC enzyme assay, HDAC2; details: selectivity HDAC6 over HDAC2
HDAC3 = HDAC3 (Homo sapiens, UniProt O15379); assay: HDAC enzyme assay, HDAC3; details: selectivity HDAC6 over HDAC3
HDAC1 = HDAC1 (Homo sapiens, UniProt Q13547); assay: HDAC enzyme assay, HDAC1; details: selectivity HDAC6 over HDAC1
[1] = tested on: RN46A-B14 serotonergic cell line; assay: α-tubulin K40 acetylation in RN46A-B14 cells (Western blot); format: cell-based, rat; details: for acetylated (lysine 40) fraction of α-tubulin: 4 hours, TSA 0.6 μM, others 2.5 μM
Procedure: In FIG. 3, it was observed that subchronic treatment, consisting of 5 treatments at 48, 28, 24, 4 and ½ hours before sacrifice, led to greater increase in tubulin acetylation than did chronic treatment of 1 injection/day for 21 days. For cell culture, RN46B cells were treated for with 0.25, 2.5 or 25 μM drug in DMSO for 1, 4 or 24 hours as indicated. Tukey post-hoc analysis: * P=0.01 to 0.05, ** P=0.001-0.01, ***P<0.001 when compared with vehicle treatment.
Results are shown as percent change normalized to the vehicle treatment condition. The horizontal hard line depicts average and the dotted lines depict SEM of the vehicle treated wells. Representative Western blot images are presented. […] Representative Western blot images are presented. […] The drugs (5 mg/kg) were administered subchronically (at 24 h, 4 h and 30 min prior to sacrifice) to HDAC6 KO and WT littermates. The changes in tubulin acetylation were measured in tissue lysates from cortex (ctx), hippocampus (Hpc), dorsal Raphe nucleus (DRN) and cerebellum (cb). The tubulin acetylation levels in drug-treated mice are expressed as percent change of the vehicle-treated mice of the corresponding genotype. The horizontal lines depict the average tubulin acetylation±SEM in the vehicle treated mice. The representative Western blot images show the changes induced by each drug treatment in the hippocampus (left column) and dorsal raphe (right column) of WT and HDAC6 KO mice.
In contrast to the class I isoforms HDAC2 and 3, which are expressed highly and ubiquitously in the mouse brain, HDAC6 mRNA expression appears to be restricted to a small number of brain areas, with highest signal observed in DRN (FIG. 13f). […] No changes in total α-tubulin expression were detected (FIG. 14a).

[2] = tested on: RN46A-B14 serotonergic cell line; assay: Histone H3K9 acetylation in RN46A-B14 cells (Western blot); format: cell-based, rat; details: 4 hours
[3] = tested on: histone H3 lysine 9 acetylation; assay: Histone H3K9 acetylation in vivo (Western blot, ChIP); parameters: species or system mouse; details: hippocampus; repeated i.p.; compound 73 5 mg/kg, sodium butyrate 1.2 g/kg
mice [4] = assay: Chronic social defeat (CSD) and social interaction test; format: in vivo, mouse; details: after CSD; fluoxetine 20 mg/kg, compound 73 5 mg/kg, compound 101 50 mg/kg
Procedure: Additionally, when combined with a dose of Citalopram with lower activity, these compounds seemed to have an additive effect (See FIG. 10). The dose of Citalopram chosen for this experiment was based on literature stating 2 mg/kg should be subactive, but this dose was found still showing an effect. Mice then underwent chronic social defeat stress, in which the mice are exposed to an aggressive resident mouse for 5 minutes daily for 10 days and are then tested on the 11th day in the social interaction test. Mice treated with vehicle for 20 total days, beginning 10 days before the defeat, show reduced time spent in the interaction zone when a target mouse is present when compared with control mice. […] The percent of mice found to be resilient, defined as spending more time in the interaction zone than the lowest control (i.e. ˜52 s), is higher in HDAC6 inhibitor groups. All behavior testing done using NIH Swiss mice, age 6-10 weeks. Tukey post-hoc analysis: * P=0.01 to 0.05, ** P=0.001-0.01, ***P<0.001 compared with vehicle treated mice.
The effects were observed 30 minutes after acute 50 mg/kg i.p. injection, but not for the lower dose (5 mg/kg). Combination of subactive doses of the HDAC6 selective inhibitors (5 mg/kg) and citalopram (0.5 mg/kg) produced robust potentiation of anti-immobility activity (n=8-29 per condition). […] No difference was observed between HDAC6 WT and KO when treated with the vehicle (n=6-15 per condition). FIG. 16c is a timeline showing treatment period, social defeat and social interaction (SI) testing.
A pro-resilient phenotype in the mouse CSD paradigm after serotonin-selective KO of HDAC6 was previously reported (Espallergues et al, 2012). Whether a chronic pharmacological inhibition of HDAC6 can replicate that phenotype is studied. […] On day 21, 24 h after the last injection, the mice were tested in the social interaction test. […] Significant effects were also observed when data was evaluated in terms of proportion of mice reaching criterion for resiliency.

mice [5] = assay: Elevated plus maze (EPM); format: in vivo, mouse; details: acute administration
[6] = tested on: α-tubulin acetylation in mouse whole brain lysates; assay: α-tubulin acetylation in whole brain lysates after single i.p. administration; format: in vivo; details: compound 73 5 mg/kg, compound 101 50 mg/kg, tubastatin A 10 mg/kg, 30 min, 1 h, 4 h
[7] = Pharmacokinetics and brain bio-distribution in mice; format: in vivo, mouse
Procedure: […] Plasma samples were taken from all mice upon sacrifice. Brain samples were taken from the mice sacrificed at 5 and 15 minutes and 1 and 4 hours. The brain samples were homogenized in PBS and centrifuged at 14000 rpm for 5 minutes. The supernatant from the brain homogenate and the plasma samples were injected onto a LC/MS/MS for analysis. The compound level in the samples was determined by a standard curve in the appropriate matrix. Pharmacokinetic parameters were determined from the raw data by WinNonLin.

[8] = tested on: α-tubulin acetylation in heart; assay: α-tubulin acetylation in heart after single systemic administration; format: in vivo, mouse; details: 10 mg/kg
Procedure: The changes were significant at 30 minutes (F3,13=163.4, P<0.0001), 1 hour (F3,13=163.9, P<0.0001) and 4 hours (F3,14=4.703, P=0.0179) after the administrations.

mice [9] = assay: Open-field test; format: in vivo, mouse; details: acute; compounds 73, 101 50 mg/kg; tubastatin A 10 mg/kg

HDAC1, sequence (Q13547 whole entry): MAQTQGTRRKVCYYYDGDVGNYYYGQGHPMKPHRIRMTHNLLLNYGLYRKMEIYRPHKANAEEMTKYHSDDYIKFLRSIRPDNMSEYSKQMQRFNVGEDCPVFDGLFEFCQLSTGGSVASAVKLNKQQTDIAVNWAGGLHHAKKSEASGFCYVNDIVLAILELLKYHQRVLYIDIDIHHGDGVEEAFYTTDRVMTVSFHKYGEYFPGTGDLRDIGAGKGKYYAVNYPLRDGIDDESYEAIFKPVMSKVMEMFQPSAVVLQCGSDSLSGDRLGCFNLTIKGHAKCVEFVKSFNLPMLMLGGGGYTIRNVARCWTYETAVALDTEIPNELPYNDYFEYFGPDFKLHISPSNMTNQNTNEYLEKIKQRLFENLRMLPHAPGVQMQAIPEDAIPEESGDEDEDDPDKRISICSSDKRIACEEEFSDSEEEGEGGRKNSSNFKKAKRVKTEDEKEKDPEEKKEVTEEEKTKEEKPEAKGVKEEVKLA
HDAC3, sequence (O15379 whole entry): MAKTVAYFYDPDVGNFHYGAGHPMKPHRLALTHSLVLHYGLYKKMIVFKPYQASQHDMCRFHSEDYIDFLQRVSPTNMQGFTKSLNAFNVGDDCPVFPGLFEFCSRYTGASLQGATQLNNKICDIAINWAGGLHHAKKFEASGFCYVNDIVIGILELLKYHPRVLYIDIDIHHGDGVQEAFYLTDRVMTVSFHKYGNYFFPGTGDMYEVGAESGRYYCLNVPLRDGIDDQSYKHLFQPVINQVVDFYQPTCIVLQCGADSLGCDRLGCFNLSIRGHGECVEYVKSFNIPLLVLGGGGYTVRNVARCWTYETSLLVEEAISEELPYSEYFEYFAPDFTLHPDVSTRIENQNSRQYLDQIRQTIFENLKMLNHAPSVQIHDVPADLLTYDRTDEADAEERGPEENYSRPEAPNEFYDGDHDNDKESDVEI
HDAC3, sequence (Q9Y618 395-489 partner limits assumed): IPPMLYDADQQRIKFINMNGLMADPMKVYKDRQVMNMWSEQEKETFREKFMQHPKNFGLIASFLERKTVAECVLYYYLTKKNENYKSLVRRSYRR
HDAC2, sequence (Q92769 whole entry): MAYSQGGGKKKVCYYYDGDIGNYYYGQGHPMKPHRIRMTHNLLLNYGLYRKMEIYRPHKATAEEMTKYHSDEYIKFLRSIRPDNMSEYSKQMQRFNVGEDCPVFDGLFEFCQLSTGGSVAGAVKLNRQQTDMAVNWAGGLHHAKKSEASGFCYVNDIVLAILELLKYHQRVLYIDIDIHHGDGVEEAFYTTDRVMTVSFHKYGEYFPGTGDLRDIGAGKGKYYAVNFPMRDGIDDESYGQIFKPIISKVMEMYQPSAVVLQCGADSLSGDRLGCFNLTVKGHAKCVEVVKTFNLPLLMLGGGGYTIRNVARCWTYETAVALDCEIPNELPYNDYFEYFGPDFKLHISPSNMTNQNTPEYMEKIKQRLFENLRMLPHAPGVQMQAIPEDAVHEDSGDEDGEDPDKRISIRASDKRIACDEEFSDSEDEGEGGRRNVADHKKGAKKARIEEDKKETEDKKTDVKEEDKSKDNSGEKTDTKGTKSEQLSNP

For `Cc1ccc(C2(Nc3ncc(C(=O)NO)cn3)CC2)cc1` [Compound 93], the “HDAC2 fold versus HDAC6 (in brackets)” value (HDAC2) was “(34.7x)”, the “HDAC3 fold versus HDAC6 (in brackets)” value (HDAC3) was “(51x)” and the “HDAC1 fold versus HDAC6 (in brackets)” value (HDAC1) was “(25.9x)”.

With `COc1ccc(C2(Nc3ncc(C(=O)NO)cn3)CC2)cc1` [Compound 97] the “HDAC2 fold versus HDAC6 (in brackets)” value (HDAC2) was “(12.1x)”, the “HDAC3 fold versus HDAC6 (in brackets)” value (HDAC3) was “(16.4x)” and the “HDAC1 fold versus HDAC6 (in brackets)” value (HDAC1) was “(8.3x)”.

For `CC(/C=C/C(=O)NO)=C\[C@@H](C)C(=O)c1ccc(N(C)C)cc1` [TSA, trichostatin A, reference compound], the “acetylated (lysine 40) fraction of α-tubulin” value [1] was “increases” and the “increase in acetylation of histone H3 at lysine 9” value ([2]; TSA 0.6 μM) was 94%.

With `CCCC(=O)[O-].[Na+]` [sodium butyrate, reference compound] the “histone H3K9 acetylation enrichment at promoter DNA (cFOS, BDNF promoter 4), ChIP” value [3] was “increases in enrichment”.

For `O=C(NO)c1cnc(NC2(c3ccccc3)CCCC2)nc1` [Compound 88], the “HDAC2 fold versus HDAC6 (in brackets)” value (HDAC2) was “(296.1x)”, the “HDAC3 fold versus HDAC6 (in brackets)” value (HDAC3) was “(679.1x)” and the “HDAC1 fold versus HDAC6 (in brackets)” value (HDAC1) was “(215.2x)”.

In the case of `O=C(NO)c1cnc(NC2(c3ccccc3Cl)CC2)nc1` [Compound 90], the “HDAC2 fold versus HDAC6 (in brackets)” value (HDAC2) is reported as “(26.2x)”, the “HDAC3 fold versus HDAC6 (in brackets)” value (HDAC3) is reported as “(30.2x)” and the “HDAC1 fold versus HDAC6 (in brackets)” value (HDAC1) is reported as “(19.9x)”.

In the case of `O=C(NO)c1cnc(NC2(c3ccccc3)CCCCC2)nc1` [Compound 84], the “HDAC2 fold versus HDAC6 (in brackets)” value (HDAC2) is reported as “(403.4x)”, the “HDAC3 fold versus HDAC6 (in brackets)” value (HDAC3) is reported as “(613x)” and the “HDAC1 fold versus HDAC6 (in brackets)” value (HDAC1) is reported as “(302.2x)”.

With `O=C(NO)c1cnc(NC2(c3ccc(F)cc3)CCCCC2)nc1` [Compound 100] the “HDAC2 fold versus HDAC6 (in brackets)” value (HDAC2) was “(504.7x)”, the “HDAC3 fold versus HDAC6 (in brackets)” value (HDAC3) was “(1428.4x)” and the “HDAC1 fold versus HDAC6 (in brackets)” value (HDAC1) was “(339.9x)”.

With `O=C(NO)c1cnc(NC2(c3ccccc3C(F)(F)F)CC2)nc1` [Compound 91] the “HDAC2 fold versus HDAC6 (in brackets)” value (HDAC2) was “(130.2x)”, the “HDAC3 fold versus HDAC6 (in brackets)” value (HDAC3) was “(169.4x)” and the “HDAC1 fold versus HDAC6 (in brackets)” value (HDAC1) was “(72.3x)”.

For `CNCCC(Oc1ccc(C(F)(F)F)cc1)c1ccccc1` (stereo not drawn) [fluoxetine, reference compound], the “percentage of resilient mice” value (mice [4]) was 60%.

In the case of `O=C(NO)c1cnc(NC2(c3ccc(F)cc3)CC2)nc1` [Compound 81], the “HDAC2 fold versus HDAC6 (in brackets)” value (HDAC2) is reported as “(30.2x)”, the “HDAC3 fold versus HDAC6 (in brackets)” value (HDAC3) is reported as “(46.4x)” and the “HDAC1 fold versus HDAC6 (in brackets)” value (HDAC1) is reported as “(18.3x)”.

With `CNC1=Nc2ccc(Cl)cc2C(c2ccccc2)=[N+]([O-])C1` [CDP, reference compound] the “behavioral changes / time in the open arms of the maze” value (mice [5]) was “dramatically increased”.

For `CN1CCc2c(c3ccccc3n2Cc2ccc(C(=O)NO)cc2)C1` [Tubastatin A, reference compound], the “α-tubulin acetylation in whole brain lysates” value [6] was “did not significantly change”, the “increase in α-tubulin acetylation in tissue culture” value [1] was “about 400%” and the “acetylated (lysine 40) fraction of α-tubulin” value [1] was “increases”. The “30 min plasma concentration (ng/ml) - 5 mg/kg” value ([7]; 5 mg/kg) was 278 ng/mL, the “Cmax” value ([7]; mice, acute i.p. dosing) was 496 ng/mL and the “T½ plasma” value ([7]; mice, acute i.p. dosing) was 2 h. For the same molecule, the plasmatic half-life ([7]; mouse, in vivo) was 2 h, the “change in histone H3K9 acetylation” value ([2]; 2.5 μM) was “no significant change” and the “increase of α-tubulin acetylation in heart” value [8] was 268%. For the same molecule, the “exploratory activity in novel open-field arena” value (mice [9]) was “did not exhibit changes”.
